From patent US20260297081A1, “COMPOUNDS AND METHODS OF TREATING CANCERS” (Cullgen Inc., priority 2023, published 2026)

Target: CDK4 (Homo sapiens, UniProt P11802+Q16531)
Assay: CDK4 percentage degradation in Calu-1 cells (Table 6)
Assay type: cell-based
Set-up: Cells that express cyclin D1-3 and CDK4/6 proteins were treated with heterobifunctional compounds; endogenous in cells; host or cells: Calu-1
Conditions: 16 hours; for inhibition at 0.04 µM: 40 nM; for inhibition at 0.2 µM: 200 nM
Experimental: Calu-(cells were treated with heterobifunctional compounds at 40 nM or 200 nM for 16 hours A: protein percentage degradation […]; B: protein percentage degradation <80%, and ≥50%; C: protein percentage degradation <50%, and ≥30%; D; protein percentage degradation […]; -, data not available.
Calu-1, T47D, MCF7, HCC1428 and other cells were cultured at 37° C. with 5% CO2 in RPMI 1640 or DMEM medium supplemented with 10% fetal bovine serum. Cells were authenticated using the short tandem repeat (STR) assays. Mycoplasma test results were negative. For palbo-resistant cell model, T47D cells were cultured long-term to resistance in the presence of 1 μM Palbociclib. Cells were deemed resistant when growing in the presence of Palbo at the same rate as parental cells.
Cultured cells were washed with cold PBS once and lysed in cold RIPA buffer supplemented with protease inhibitors and phosphatase inhibitors (Beyotime Biotechnology). The solutions were then incubated at 4 ? for 30 min with gentle agitation to fully lysed cells. Cell lysates were centrifuged at 13,000 rpm for 10 min at 4 ? and pellets were discarded. Total protein concentrations in the lysates were determined following BCA assays (Beyotime Biotechnology). Cell lysates were mixed with Laemmli loading buffer and heated at 99° C. for 5 min. Proteins were resolved on SDS-PAGE and visualized using Western ECL Substrate kits on a ChemiDoc MP Imaging system (Bio-Rad). Protein bands were quantitated using the Image Lab software provided by Bio-Rad.

Chain of CDK4 (P11802 2-303 limits assumed): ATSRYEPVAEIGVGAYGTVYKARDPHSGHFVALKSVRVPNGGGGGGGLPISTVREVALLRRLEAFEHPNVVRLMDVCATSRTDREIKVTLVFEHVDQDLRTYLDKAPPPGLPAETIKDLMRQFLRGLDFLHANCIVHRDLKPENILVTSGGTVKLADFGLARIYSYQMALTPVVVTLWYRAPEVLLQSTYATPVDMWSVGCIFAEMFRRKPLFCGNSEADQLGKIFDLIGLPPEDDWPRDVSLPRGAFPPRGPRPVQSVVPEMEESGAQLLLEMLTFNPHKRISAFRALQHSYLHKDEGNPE
Chain of CDK4 (P24385 whole entry partner): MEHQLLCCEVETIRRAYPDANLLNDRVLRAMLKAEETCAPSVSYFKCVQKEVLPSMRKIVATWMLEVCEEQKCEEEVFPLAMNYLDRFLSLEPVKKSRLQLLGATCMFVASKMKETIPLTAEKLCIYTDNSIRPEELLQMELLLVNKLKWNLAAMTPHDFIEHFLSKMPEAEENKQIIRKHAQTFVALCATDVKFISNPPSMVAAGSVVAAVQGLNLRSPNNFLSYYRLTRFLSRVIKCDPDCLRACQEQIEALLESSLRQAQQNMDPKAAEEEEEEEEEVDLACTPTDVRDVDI
Chain of CDK4 (Q16531 2-1140 limits assumed): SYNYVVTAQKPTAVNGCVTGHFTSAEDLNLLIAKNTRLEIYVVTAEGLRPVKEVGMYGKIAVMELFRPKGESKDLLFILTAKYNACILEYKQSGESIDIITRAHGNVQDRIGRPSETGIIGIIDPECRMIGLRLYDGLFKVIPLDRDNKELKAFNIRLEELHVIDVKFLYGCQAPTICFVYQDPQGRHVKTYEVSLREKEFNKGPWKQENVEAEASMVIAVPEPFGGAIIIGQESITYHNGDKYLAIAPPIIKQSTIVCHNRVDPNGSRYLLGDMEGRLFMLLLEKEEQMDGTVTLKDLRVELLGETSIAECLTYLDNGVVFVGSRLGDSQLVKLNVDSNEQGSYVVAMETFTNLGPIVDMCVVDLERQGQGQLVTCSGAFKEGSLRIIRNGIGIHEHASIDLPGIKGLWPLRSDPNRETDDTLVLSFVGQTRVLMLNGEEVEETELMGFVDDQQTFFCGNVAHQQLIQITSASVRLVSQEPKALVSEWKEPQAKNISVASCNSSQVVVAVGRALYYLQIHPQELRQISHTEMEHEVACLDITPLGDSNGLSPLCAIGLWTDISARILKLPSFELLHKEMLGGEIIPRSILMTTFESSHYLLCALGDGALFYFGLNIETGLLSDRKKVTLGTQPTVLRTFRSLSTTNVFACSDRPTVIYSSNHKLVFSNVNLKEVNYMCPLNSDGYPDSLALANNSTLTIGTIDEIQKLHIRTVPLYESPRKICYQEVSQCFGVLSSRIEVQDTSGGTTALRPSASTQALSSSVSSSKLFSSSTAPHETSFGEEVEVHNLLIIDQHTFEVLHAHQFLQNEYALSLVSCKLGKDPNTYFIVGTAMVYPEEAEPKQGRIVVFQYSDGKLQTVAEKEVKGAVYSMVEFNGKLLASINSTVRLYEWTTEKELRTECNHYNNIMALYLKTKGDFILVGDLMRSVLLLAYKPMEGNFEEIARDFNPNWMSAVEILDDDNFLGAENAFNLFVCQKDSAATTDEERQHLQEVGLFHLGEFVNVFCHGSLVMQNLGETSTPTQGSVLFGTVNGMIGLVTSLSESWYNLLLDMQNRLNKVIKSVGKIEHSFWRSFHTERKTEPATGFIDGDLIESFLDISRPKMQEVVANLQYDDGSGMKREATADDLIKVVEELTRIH

Row | SMILES | inhibition at 0.04 µM [%] | inhibition at 0.2 µM [%]
1 | CNc1ccc(C(=O)Nc2ccc(N)nn2)c(NCCCCCNC(=O)CN2CCN(c3ccc(Nc4ncc5c(C)c(C(C)=O)c(=O)n(C6CCCC6)c5n4)nc3)CC2)n1 [CPD-104, 2-((5-(2-(4-(6-((6-Acetyl-8-cyclopentyl-5-methyl-7-oxo-7,8-dihydropyrido[2,3-d]pyrimidin-2-yl)amino)pyridin-3-yl)piperazin-1-yl)acetamido)pentyl)amino)-N-(6-aminopyridazin-3-yl)-6-(methylamino)nicotinamide] | < 30 | < 30
2 | CNc1ccc(C(=O)Nc2cc(C)on2)c(NC2CCN(C(=O)CN3CCN(c4ccc(Nc5ncc6c(C)c(C(C)=O)c(=O)n(C7CCCC7)c6n5)nc4)CC3)CC2)n1 [CPD-229, 2-((1-(2-(4-(6-((6-acetyl-8-cyclopentyl-5-methyl-7-oxo-7,8-dihydropyrido[2,3-d]pyrimidin-2-yl)amino)pyridin-3-yl)piperazin-1-yl)acetyl)piperidin-4-yl)amino)-6-(methylamino)-N-(5-methylisoxazol-3-yl)nicotinamide] | 30 to 50 | 50 to 80
3 | CC(=O)c1c(C)c2cnc(Nc3ccc(N4CCN(CC(=O)NCCCCCCCNc5nc(-c6ccc(C#N)nc6)ccc5C(=O)Nc5nc(C)c(C)s5)CC4)cn3)nc2n(C2CCCC2)c1=O [CPD-142] | < 30 | 
4 | CNc1ccc(C(=O)Nc2ccc(N(C)C)nn2)c(NC[C@H]2CC[C@@H](NC(=O)CN3CCN(c4ccc(Nc5ncc6c(C)c(C(C)=O)c(=O)n(C7CCCC7)c6n5)nc4)CC3)CC2)n1 [CPD-193, 2-(((cis-4-(2-(4-(6-((6-acetyl-8-cyclopentyl-5-methyl-7-oxo-7,8-dihydropyrido[2,3-d]pyrimidin-2-yl)amino)pyridin-3-yl)piperazin-1-yl)acetamido)cyclohexyl)methyl)amino)-N-(6-(dimethylamino)pyridazin-3-yl)-6-(methylamino)nicotinamide] | 50 to 80 | 50 to 80
5 | [2H]C([2H])([2H])Nc1ccc(C(=O)Nc2cccc(C3CC3)n2)c(NC2CC3(CC(NC(=O)CN4CCN(c5ccc(Nc6ncc7c(C)c(C(C)=O)c(=O)n(C8CCCC8)c7n6)nc5)CC4)C3)C2)n1 (stereo not shown) [CPD-163, 2-((6-(2-(4-(6-((6-acetyl-8-cyclopentyl-5-methyl-7-oxo-7,8-dihydropyrido[2,3-d]pyrimidin-2-yl)amino)pyridin-3-yl)piperazin-1-yl)acetamido)spiro[3.3]heptan-2-yl)amino)-N-(6-cyclopropylpyridin-2-yl)-6-((methyl-d3)amino)nicotinamide] | 50 to 80 | 50 to 80
6 | CNc1ccc(C(=O)NC2CCC(N(C)C)C2)c(NCCCCCNC(=O)CN2CCN(c3ccc(Nc4ncc5c(C)c(C(C)=O)c(=O)n(C6CCCC6)c5n4)nc3)CC2)n1 (stereo not shown) [CPD-55, 2-((5-(2-(4-(6-((6-Acetyl-8-cyclopentyl-5-methyl-7-oxo-7,8-dihydropyrido[2,3-d]pyrimidin-2-yl)amino)pyridin-3-yl)piperazin-1-yl)acetamido)pentyl)amino)-N-(3-(dimethylamino)cyclopentyl)-6-(methylamino)nicotinamide] | < 30 | < 30
7 | CNc1ccc(NC(=O)c2ccc(NC)nc2NCCCCCNC(=O)CN2CCN(c3ccc(Nc4ncc5c(C)c(C(C)=O)c(=O)n(C6CCCC6)c5n4)nc3)CC2)nn1 [CPD-110, 2-((5-(2-(4-(6-((6-Acetyl-8-cyclopentyl-5-methyl-7-oxo-7,8-dihydropyrido[2,3-d]pyrimidin-2-yl)amino)pyridin-3-yl)piperazin-1-yl)acetamido)pentyl)amino)-6-(methylamino)-N-(6-(methylamino)pyridazin-3-yl)nicotinamide] | < 30 | 50 to 80
8 | CNc1ccc(C(=O)Nc2nc(C3CC3)ccc2C)c(NCCCCCNC(=O)CN2CCN(c3ccc(Nc4ncc5c(C)c(C(C)=O)c(=O)n(C6CCCC6)c5n4)nc3)CC2)n1 [CPD-61, 2-((5-(2-(4-(6-((6-Acetyl-8-cyclopentyl-5-methyl-7-oxo-7,8-dihydropyrido[2,3-d]pyrimidin-2-yl)amino)pyridin-3-yl)piperazin-1-yl)acetamido)pentyl)amino)-N-(6-cyclopropyl-3-methylpyridin-2-yl)-6-(methylamino)nicotinamide] | < 30 | < 30
9 | COc1ccc(NC(=O)c2ccc(C)nc2NCCCCCCCNC(=O)CN2CCN(c3ccc(Nc4ncc5c(C)c(C(C)=O)c(=O)n(C6CCCC6)c5n4)nc3)CC2)nn1 [CPD-2, 2-((7-(2-(4-(6-((6-acetyl-8-cyclopentyl-5-methyl-7-oxo-7,8-dihydropyrido[2,3-d]pyrimidin-2-yl)amino)pyridin-3-yl)piperazin-1-yl)acetamido)heptyl)amino)-N-(6-methoxypyridazin-3-yl)-6-methylnicotinamide] | 50 to 80 | > 80
10 | CNc1ccc(C(=O)Nc2cc(C)n(C)n2)c(NC[C@H]2CC[C@H](NC(=O)CN3CCN(c4ccc(Nc5ncc6c(C)c(C(C)=O)c(=O)n(C7CCCC7)c6n5)nc4)CC3)CC2)n1 [CPD-131, 2-(((trans-4-(2-(4-(6-((6-Acetyl-8-cyclopentyl-5-methyl-7-oxo-7,8-dihydropyrido[2,3-d]pyrimidin-2-yl)amino)pyridin-3-yl)piperazin-1-yl)acetamido)cyclohexyl)methyl)amino)-N-(1,5-dimethyl-1H-pyrazol-3-yl)-6-(methylamino)nicotinamide] | < 30 | 50 to 80
11 | [2H]C([2H])([2H])Nc1ccc(C(=O)Nc2ccc(F)c(C3CC3)n2)c(NC2CC3(CC(NC(=O)CN4CCN(c5ccc(Nc6ncc7c(C)c(C(C)=O)c(=O)n(C8CCCC8)c7n6)nc5)CC4)C3)C2)n1 (stereo not shown) [CPD-239, 2-((6-(2-(4-(6-((6-acetyl-8-cyclopentyl-5-methyl-7-oxo-7,8-dihydropyrido[2,3-d]pyrimidin-2-yl)amino)pyridin-3-yl)piperazin-1-yl)acetamido)spiro[3.3]heptan-2-yl)amino)-N-(6-cyclopropyl-5-fluoropyridin-2-yl)-6-((methyl-da)amino)nicotinamide] | 30 to 50 | 50 to 80
12 | CC(=O)c1c(C)c2cnc(Nc3ccc(N4CCN(CC(=O)NCCCCCCCNc5nc(C)ccc5C(=O)Nc5ccc(C)c(C6CC6)n5)CC4)cn3)nc2n(C2CCCC2)c1=O [CPD-9, 2-((7-(2-(4-(6-((6-acetyl-8-cyclopentyl-5-methyl-7-oxo-7,8-dihydropyrido[2,3-d]pyrimidin-2-yl)amino)pyridin-3-yl)piperazin-1-yl)acetamido)heptyl)amino)-N-(6-cyclopropyl-5-methylpyridin-2-yl)-6-methylnicotinamide] | 50 to 80 | > 80
13 | CNc1ccc(C(=O)Nc2ccc(C3CC3)nc2)c(NC2CC3(CC(NC(=O)CN4CCN(c5ccc(Nc6ncc7c(C)c(C(C)=O)c(=O)n(C8CCCC8)c7n6)nc5)CC4)C3)C2)n1 (stereo not shown) [CPD-74, 2-((6-(2-(4-(6-((6-Acetyl-8-cyclopentyl-5-methyl-7-oxo-7,8-dihydropyrido[2,3-d]pyrimidin-2-yl)amino)pyridin-3-yl)piperazin-1-yl)acetamido)spiro[3.3]heptan-2-yl)amino)-N-(6-cyclopropylpyridin-3-yl)-6-(methylamino)nicotinamide] | < 30 | < 30
14 | CNc1ccc(C(=O)Nc2cc(C)cc(C3CC3)n2)c(NCCCCCNC(=O)CN2CCN(c3ccc(Nc4ncc5c(C)c(C(C)=O)c(=O)n(C6CCCC6)c5n4)nc3)CC2)n1 [CPD-53, 2-((5-(2-(4-(6-((6-Acetyl-8-cyclopentyl-5-methyl-7-oxo-7,8-dihydropyrido[2,3-d]pyrimidin-2-yl)amino)pyridin-3-yl)piperazin-1-yl)acetamido)pentyl)amino)-N-(6-cyclopropyl-4-methylpyridin-2-yl)-6-(methylamino)nicotinamide] | 50 to 80 | 50 to 80
15 | CNc1ccc(C(=O)Nc2ncc(C)o2)c(NC2CC3(CC(NC(=O)CN4CCN(c5ccc(Nc6ncc7c(C)c(C(C)=O)c(=O)n(C8CCCC8)c7n6)nc5)CC4)C3)C2)n1 (stereo not shown) [CPD-246, 2-((6-(2-(4-(6-((6-acetyl-8-cyclopentyl-5-methyl-7-oxo-7,8-dihydropyrido[2,3-d]pyrimidin-2-yl)amino)pyridin-3-yl)piperazin-1-yl)acetamido)spiro[3.3]heptan-2-yl)amino)-6-(methylamino)-N-(5-methyloxazol-2-yl)nicotinamide] | 50 to 80 | 50 to 80
16 | CNc1ccc(C(=O)Nc2ccc(N3CCCC3)nn2)c(NCCCCCNC(=O)CN2CCN(c3ccc(Nc4ncc5c(C)c(C(C)=O)c(=O)n(C6CCCC6)c5n4)nc3)CC2)n1 [CPD-17, 2-((5-(2-(4-(6-((6-Acetyl-8-cyclopentyl-5-methyl-7-oxo-7,8-dihydropyrido[2,3-d]pyrimidin-2-yl)amino)pyridin-3-yl)piperazin-1-yl)acetamido)pentyl)amino)-6-(methylamino)-N-(6-(pyrrolidin-1-yl)pyridazin-3-yl)nicotinamide] | < 30 | 30 to 50
